Data taken from patent EP0745599A2, “1-(3-Heterocyclylphenyl)-s-triazine-2,4,6-oxo or thiotrione herbicidal agents” (American Cyanamid Company, priority 1995, dated 1996).

What was measured:
Assay type in all cases: in vivo
Conditions in all cases: rated four to five weeks after treatment
[1] = system: ORYZA SATIVA, L. TEBONNET; assay: Preemergence herbicidal evaluation, ORYSAT (Rice, Tebonnet); set-up: key to ORYSAT: visual rating scale 0-9 vs control
Source text: (§1) Results of herbicide evaluation are expressed on a rating scale (0-9). The scale is based upon a visual observation of plant stand, vigor, malformation, size, chlorosis and overall plant appearance as compared with a control.
(§2) The preemergence herbicidal activity of the test compounds of the present invention is exemplified by the following tests in which the seeds of a variety of monocotyledonous and dicotyledonous plants are separately mixed with potting soil and planted on top of approximately one inch of soil in separate pint cups. After planting, the cups are sprayed with the selected aqueous acetone solution containing test compound in sufficient quantity to provide the equivalent of about 0.125 to 0.50 kg per hectare of test compound per cup. The treated cups are then placed on greenhouse benches, watered and cared for in accordance with conventional greenhouse procedures. From four to five weeks after treatment, the tests are terminated and each cup is examined and rated according to the rating system provided in Example 42.

[2] = system: AMBROSIA ARTEMISIIFOLIA, L.; assay: Preemergence herbicidal evaluation, AMBEL (Ragweed, Common); set-up: key to AMBEL: visual rating scale 0-9 vs control
Source text: as §1, §2

[3] = system: IPOMOEA SPP.; assay: Preemergence herbicidal evaluation, IPOSS (Morningglory Spp.); set-up: key to IPOSS: visual rating scale 0-9 vs control
Source text: as §1, §2

[4] = system: ECHINOCHLOA CRUS-GALLI, (L) BEAU; assay: Preemergence herbicidal evaluation, ECHCG (Barnyardgrass); set-up: key to ECHCG: visual rating scale 0-9 vs control
Source text: as §1, §2

[5] = system: CASSIA OBTUSIFOLIA, L.; assay: Preemergence herbicidal evaluation, CASOB (Sicklepod); set-up: key to CASOB: visual rating scale 0-9 vs control
Source text: as §1, §2

[6] = system: TRITICUM AESTIVUM, CV. APOLLO; assay: Preemergence herbicidal evaluation, TRZAWO (Wheat, Winter, CV. APOLLO); set-up: key to TRZAWO: visual rating scale 0-9 vs control
Source text: as §1, §2

[7] = system: ZEA MAYS L.; assay: Preemergence herbicidal evaluation, ZEAMX (Corn, Field); set-up: key to ZEAMX: visual rating scale 0-9 vs control
Source text: as §1, §2

[8] = system: SETARIA VIRIDIS, (L) BEAU; assay: Preemergence herbicidal evaluation, SETVI (Foxtail, Green); set-up: key to SETVI: visual rating scale 0-9 vs control
Source text: as §1, §2

[9] = system: SETARIA VIRIDIS, (L) BEAU; assay: Postemergence herbicidal evaluation, SETVI (Foxtail, Green)
Procedure: (§3) In the tests, seedling plants are grown in jiffy flats for about two weeks. The test compounds are dispersed in 50/50 acetone/water mixtures containing 0.5% TWEEN®20, a polyoxyethylene sorbitan monolaurate surfactant of Atlas Chemical Industries, in sufficient quantities to provide the equivalent of about 0.125 kg to 0.500 kg per hectare of active compound when applied to the plants through a spray nozzle operating at 40 psi for a predetermined time. After spraying, the plants are placed on greenhouse benches and are cared for in the usual manner, commensurate with conventional greenhouse practices. From four to five weeks after treatment, the seedling plants are examined and rated according to the rating system set forth below. Where more than one test is involved for a given compound, the data are averaged.
as §1

[10] = system: CHENOPODIUM ALBUM, L.; assay: Preemergence herbicidal evaluation, CHEAL (Lambsquarters, Common); set-up: key to CHEAL: visual rating scale 0-9 vs control
Source text: as §1, §2

[11] = system: GLYCINE MAX(L)MERR. CV. WILLIAMS; assay: Preemergence herbicidal evaluation, GLXMAW (Soybean, Williams); set-up: key to GLXMAW: visual rating scale 0-9 vs control
Source text: as §1, §2

[12] = system: ECHINOCHLOA CRUS-GALLI, (L) BEAU; assay: Postemergence herbicidal evaluation, ECHCG (Barnyardgrass)
Procedure: as §3, §1

[13] = system: ABUTILON THEOPHRASTI, MEDIC.; assay: Preemergence herbicidal evaluation, ABUTH (Velvetleaf); set-up: key to ABUTH: visual rating scale 0-9 vs control
Source text: as §1, §2

[14] = system: GALIUM APARINE; assay: Preemergence herbicidal evaluation, GALAP (Galium); set-up: key to GALAP: visual rating scale 0-9 vs control
Source text: as §1, §2

C#CCn1c(=O)n(C)c(=O)n(-c2cc(N3C(=O)C4=C(CCCC4)C3=O)c(F)cc2Cl)c1=O [Compound 16, N-{4-Chloro-2-fluoro-5-[hexahydro-3-methyl-2,4,6-trioxo-5-(2-propynyl)-s-triazin-1-yl]phenyl}-1-cyclohexene-1,2-dicarboximide]
ORYSAT ([1]; Rate 0.125 kg/ha): 0.0 | ORYSAT ([1]; Rate 0.250 kg/ha): 0.0 | ORYSAT ([1]; Rate 0.500 kg/ha): 0.0 | AMBEL ([2]; Rate 0.125 kg/ha): 0.0 | AMBEL ([2]; Rate 0.250 kg/ha): 0.0 | AMBEL ([2]; Rate 0.500 kg/ha): 2.0 | IPOSS ([3]; Rate 0.125 kg/ha): 0.0 | IPOSS ([3]; Rate 0.250 kg/ha): 0.0 | IPOSS ([3]; Rate 0.500 kg/ha): 0.0 | ECHCG ([4]; Rate 0.125 kg/ha): 0.0 | ECHCG ([4]; Rate 0.250 kg/ha): 0.0 | ECHCG ([4]; Rate 0.500 kg/ha): 0.0 | CASOB ([5]; Rate 0.125 kg/ha): 0.0 | CASOB ([5]; Rate 0.250 kg/ha): 0.0 | CASOB ([5]; Rate 0.500 kg/ha): 0.0 | TRZAWO ([6]; Rate 0.125 kg/ha): 0.0 | TRZAWO ([6]; Rate 0.250 kg/ha): 0.0 | TRZAWO ([6]; Rate 0.500 kg/ha): 0.0 | ZEAMX ([7]; Rate 0.125 kg/ha): 0.0 | ZEAMX ([7]; Rate 0.250 kg/ha): 1.0 | ZEAMX ([7]; Rate 0.500 kg/ha): 2.0 | SETVI ([8]; Rate 0.125 kg/ha): 0.0 | SETVI ([8]; Rate 0.250 kg/ha): 0.0 | SETVI ([8]; Rate 0.500 kg/ha): 3.0 | Herbicide rating (0-9) SETVI ([9]; 0.125 kg/ha): 0.0 | Herbicide rating (0-9) SETVI ([9]; 0.250 kg/ha): 0.0 | Herbicide rating (0-9) SETVI ([9]; 0.500 kg/ha): 0.0 | CHEAL ([10]; Rate 0.125 kg/ha): 6.0 | CHEAL ([10]; Rate 0.250 kg/ha): 8.0 | CHEAL ([10]; Rate 0.500 kg/ha): 9.0 | GLXMAW ([11]; Rate 0.125 kg/ha): 0.0 | GLXMAW ([11]; Rate 0.250 kg/ha): 0.0 | GLXMAW ([11]; Rate 0.500 kg/ha): 0.0 | Herbicide rating (0-9) ECHCG ([12]; 0.125 kg/ha): 0.0 | Herbicide rating (0-9) ECHCG ([12]; 0.250 kg/ha): 0.0 | Herbicide rating (0-9) ECHCG ([12]; 0.500 kg/ha): 0.0 | ABUTH ([13]; Rate 0.125 kg/ha): 2.0 | ABUTH ([13]; Rate 0.250 kg/ha): 6.0 | ABUTH ([13]; Rate 0.500 kg/ha): 9.0 | GALAP ([14]; Rate 0.125 kg/ha): 0.0 | GALAP ([14]; Rate 0.250 kg/ha): 0.0 | GALAP ([14]; Rate 0.500 kg/ha): 4.0

C=CCn1c(=O)n(C)c(=O)n(-c2cc(N3C(=O)C4=C(CCCC4)C3=O)c(F)cc2Cl)c1=O [Compound 17, N-[5-(3-Allylhexahydro-5-methyl-2,4,6-trioxo-s-triazin-1-yl)-4-chloro-2-fluoro-phenyl]-1-cyclohexene-1,2-dicarboximide]
ORYSAT ([1]; Rate 0.125 kg/ha): 0.0 | ORYSAT ([1]; Rate 0.250 kg/ha): 0.0 | ORYSAT ([1]; Rate 0.500 kg/ha): 2.0 | AMBEL ([2]; Rate 0.125 kg/ha): 0.0 | AMBEL ([2]; Rate 0.250 kg/ha): 0.0 | AMBEL ([2]; Rate 0.500 kg/ha): 2.0 | IPOSS ([3]; Rate 0.125 kg/ha): 0.0 | IPOSS ([3]; Rate 0.250 kg/ha): 0.0 | IPOSS ([3]; Rate 0.500 kg/ha): 0.0 | ECHCG ([4]; Rate 0.125 kg/ha): 0.0 | ECHCG ([4]; Rate 0.250 kg/ha): 0.0 | ECHCG ([4]; Rate 0.500 kg/ha): 0.0 | CASOB ([5]; Rate 0.125 kg/ha): 0.0 | CASOB ([5]; Rate 0.250 kg/ha): 0.0 | CASOB ([5]; Rate 0.500 kg/ha): 0.0 | TRZAWO ([6]; Rate 0.125 kg/ha): 0.0 | TRZAWO ([6]; Rate 0.250 kg/ha): 0.0 | TRZAWO ([6]; Rate 0.500 kg/ha): 0.0 | ZEAMX ([7]; Rate 0.125 kg/ha): 0.0 | ZEAMX ([7]; Rate 0.250 kg/ha): 0.0 | ZEAMX ([7]; Rate 0.500 kg/ha): 3.0 | SETVI ([8]; Rate 0.125 kg/ha): 0.0 | SETVI ([8]; Rate 0.250 kg/ha): 0.0 | SETVI ([8]; Rate 0.500 kg/ha): 3.0 | CHEAL ([10]; Rate 0.125 kg/ha): 6.0 | CHEAL ([10]; Rate 0.250 kg/ha): 9.0 | CHEAL ([10]; Rate 0.500 kg/ha): 9.0 | GLXMAW ([11]; Rate 0.125 kg/ha): 0.0 | GLXMAW ([11]; Rate 0.250 kg/ha): 0.0 | GLXMAW ([11]; Rate 0.500 kg/ha): 0.0 | Herbicide rating (0-9) ECHCG ([12]; 0.125 kg/ha): 0.0 | Herbicide rating (0-9) ECHCG ([12]; 0.250 kg/ha): 0.0 | Herbicide rating (0-9) ECHCG ([12]; 0.500 kg/ha): 0.0 | ABUTH ([13]; Rate 0.125 kg/ha): 0.0 | ABUTH ([13]; Rate 0.250 kg/ha): 3.0 | ABUTH ([13]; Rate 0.500 kg/ha): 9.0 | GALAP ([14]; Rate 0.125 kg/ha): 0.0 | GALAP ([14]; Rate 0.250 kg/ha): 7.0 | GALAP ([14]; Rate 0.500 kg/ha): 4.0

C=CCn1c(=O)[nH]c(=O)n(-c2cc(N3C(=O)C4=C(CCCC4)C3=O)c(F)cc2Cl)c1=O [Compound 18, N-[5-(3-Allylhexahydro-2,4,6-trioxo-s-triazin-1-yl)-4-chloro-2-fluorophenyl]-1-cyclohexene-1,2-dicarboximide]
ORYSAT ([1]; Rate 0.125 kg/ha): 0.0 | ORYSAT ([1]; Rate 0.250 kg/ha): 0.0 | ORYSAT ([1]; Rate 0.500 kg/ha): 0.0 | AMBEL ([2]; Rate 0.125 kg/ha): 0.0 | AMBEL ([2]; Rate 0.250 kg/ha): 0.0 | AMBEL ([2]; Rate 0.500 kg/ha): 0.0 | IPOSS ([3]; Rate 0.125 kg/ha): 0.0 | IPOSS ([3]; Rate 0.250 kg/ha): 0.0 | IPOSS ([3]; Rate 0.500 kg/ha): 4.0 | ECHCG ([4]; Rate 0.125 kg/ha): 0.0 | ECHCG ([4]; Rate 0.250 kg/ha): 0.0 | ECHCG ([4]; Rate 0.500 kg/ha): 0.0 | CASOB ([5]; Rate 0.125 kg/ha): 0.0 | CASOB ([5]; Rate 0.250 kg/ha): 0.0 | CASOB ([5]; Rate 0.500 kg/ha): 0.0 | TRZAWO ([6]; Rate 0.125 kg/ha): 0.0 | TRZAWO ([6]; Rate 0.250 kg/ha): 0.0 | TRZAWO ([6]; Rate 0.500 kg/ha): 0.0 | ZEAMX ([7]; Rate 0.125 kg/ha): 0.0 | ZEAMX ([7]; Rate 0.250 kg/ha): 0.0 | ZEAMX ([7]; Rate 0.500 kg/ha): 0.0 | SETVI ([8]; Rate 0.125 kg/ha): 0.0 | SETVI ([8]; Rate 0.250 kg/ha): 0.0 | SETVI ([8]; Rate 0.500 kg/ha): 0.0 | CHEAL ([10]; Rate 0.125 kg/ha): 0.0 | CHEAL ([10]; Rate 0.250 kg/ha): 5.0 | CHEAL ([10]; Rate 0.500 kg/ha): 7.0 | GLXMAW ([11]; Rate 0.125 kg/ha): 0.0 | GLXMAW ([11]; Rate 0.250 kg/ha): 0.0 | GLXMAW ([11]; Rate 0.500 kg/ha): 0.0 | ABUTH ([13]; Rate 0.125 kg/ha): 0.0 | ABUTH ([13]; Rate 0.250 kg/ha): 0.0 | ABUTH ([13]; Rate 0.500 kg/ha): 0.0 | GALAP ([14]; Rate 0.125 kg/ha): 0.0 | GALAP ([14]; Rate 0.250 kg/ha): 0.0 | GALAP ([14]; Rate 0.500 kg/ha): 4.0
